Numbers after ± are expanded uncertainties.

The conditions of data set [1]: DTA.
The nature of data set [2]: Molar enthalpy of transition or fusion.

Consider `CCCCCCCCCC(=O)NCCc1ccc(O)cc1` [N-[2-(4-hydroxyphenyl)ethyl]decanamide], for which the Normal melting temperature in data set [1] (Crystal) worked out at 81.47 ± 2.1 °C. Also, the “Molar enthalpy of transition or fusion” value in data set [2] (Crystal) was 21.3 ± 1.3 kJ/mol.

Consider `CCCCCCCCCCCC(=O)NCCc1ccc(O)cc1` [N-[2-(4-hydroxyphenyl)ethyl]dodecanamide], for which the Normal melting temperature in data set [1] (Crystal) was found to be 91.39 ± 2.1 °C. The “Molar enthalpy of transition or fusion” value in data set [2] (Crystal) worked out at 28 ± 1.6 kJ/mol.

Consider `CCCCCCCCCCCCCCCC(=O)NCCc1ccc(O)cc1` [N-[2-(4-hydroxyphenyl)ethyl]hexadecanamide], for which the Normal melting temperature in data set [1] (Crystal 1) stood at 103.76 ± 2.1 °C. Moreover, the “Molar enthalpy of transition or fusion” value in data set [2] (Crystal 1) came to 49.6 ± 2.7 kJ/mol.

With `CCCCCCCCCCCCCC(=O)NCCc1ccc(O)cc1` [N-[2-(4-hydroxyphenyl)ethyl]tetradecanamide], in data set [1] (Crystal 1), the Normal melting temperature worked out at 98.1 ± 2.1 °C. Further, the “Molar enthalpy of transition or fusion” value in data set [2] (Crystal 1) was 43.6 ± 2.4 kJ/mol.

The values above are taken from the NIST ThermoML archive (doi:10.1016/j.tca.2014.03.030).
